Results from patent US20200397860A1, “SLIT AND BONE GROWTH MODULATION” (Cornell University, priority 2018, published 2020).

Assays:
[1] = tested on: bone marrow endothelial progenitor outgrowth cells (EPOCs); test: Matrigel tube formation assay; assay type: cell-based, mouse; conditions: EPOCs transduced with YAP shRNA
Experimental: Mouse bone marrow derived late-stage endothelial progenitor outgrowth cells (EPOCs) were obtained from BioChain (7030031) and cultured in growth medium (BioChain Z7030035) as described previously (Xie et al. 2014). Endothelial cell migration assay was set up in Trans well-24 well plates with 8-um pore filters. Briefly, 1×10^5 cells/well after 1-hour serum starvation were seeded in the upper chamber, then incubated with conditioned medium from osteoblasts and control in the lower chambers for a further 3 h. The cells in the upper surface of each filter were removed with cotton swabs. The cells that migrated into the lower surface were fixed with 4% PFA for 30 min and then stained with crystal violet. The cell numbers were quantified by counting a centered microscope field per each filter (5 wells for each condition). Endothelial cell wound healing assays were conducted in 12-well plates precoated with gelatin (Stemcell Technologies). 3×10^5 cells/well were plated overnight and stimulated with a wound in the form of a single linear scratch made with a yellow pipette tip. After gently washing the well twice, cells were cultured in medium with SLIT3 or vehicle. At 6 and 12 hours after injury, cells were stained by 0.5% crystal violet and photographed. The width of the wound area was quantitatively evaluated using ImageJ (see website at rsb.info.uih.gov/ij/download.html). Endothelial cell proliferation assays were conducted in 96-well plates pre-coated with gelatin (Stemcell Technologies). EPOCs (3×10^4 cells/well) were seeded in the medium with a serial dilution of SLIT3 protein or vehicle in plates. At 0, 24, 48 hours after seeding, cells were incubated with 10-fold diluted Alamar Blue solution (Thermo Fisher) and the supernatant was evaluated with a spectrophotometer (Thermo) (5 wells for each condition). Endothelial cell tube formation assay was conducted in 96-well plates pre-coated with Matrigel (BD). After 1 h serum starvation, EPOCs (3×10^4 cells/well) were seeded in conditioned medium dilution or control medium on polymerized Matrigel in plates. Alter 5 hours incubation at 37° C., the number of tube branches each well was observed and quantified by counting four random fields per well with microscopy (5 wells for each condition).

[2] = tested on: murine ovariectomy (OVX) model of postmenopausal osteoporosis; test: Ovariectomy (OVX) induced bone loss, prophylactic model; assay type: in vivo, mouse; conditions: L3 vertebrae
Experimental: Micro-CT (μCT) analysis was conducted on a Scanco Medical μCT 35 system at the Citigroup Biomedical Imaging Core using the previously described parameters. (Shim et al. 2013). μCT analysis was performed by an investigator blinded to the genotypes of the animals under analysis.
For histomorphometry, mice were injected with calcein (25 mg/kg, Sigma), and undecalcified sections of the lumbar vertebrae were stained using von Kossa and TRAP as described by Fukuda et al. (2013). Static and dynamic histomorphometric analysis was performed with using the Osteomeasure Analysis System (Osteometrics) following standard nomenclature as described (Dempster et al. 2013). Bone volume/total volume (BV/TV), bone formation rate/bone surface (BFR/BS, μm^3 […] yr^−1), mineral apposition rate (MM, um Day^−1), osteoblast surface/bone surface (Ob.S/BS, %) and osteoclast number/bone perimeter (No. OC/Bpm) were analyzed.
For the prophylactic model, 12-week-old female mice (JAX) were anesthetized and bilaterally ovariectomized or sham operated. Ovariectomized mice were given twice weekly intravenous injections of 1 mg per kg body weight of SLITS or vehicle or daily subcutaneous (sc) injections of 80 ug/kg PTH (1-34) for 6 weeks starting 2 weeks after ovariectomy. […] All mice were then randomly assigned to one of four groups: Sham, OVX+vehicle, OVX+SLITS and OVX+PTH. Three days after the last injection, all of the mice were euthanized and subjected to bone analysis as described earlier.

[3] = tested on: CD31^hiEMCN^hi endothelium; test: Flow cytometry of skeletal CD31hiEMCNhi endothelium in femurs after IV injection; assay type: in vivo, mouse; conditions: 8-week-old B6 mice, twice weekly IV 1 mg/kg, 21 days, femur
Experimental: Femur and tibia were dissected from mutant mice and control groups after removing surrounding connective tissues. The metaphysis region and diaphysis regions of bone was crushed in Hanks Balanced Salt Solution (Life Technologies) containing 10 mM HOPES (pH 7.2) (CellGro) and enzymatically digested with 2.5 mg/mL Collagenase A (Roche) and 1 unit/mL Dispase II (Roche) for 15 minutes at 37° C. under gentle agitation. The resulting cell suspensions were filtered (40 μm), washed using PBS (pH 7.2) containing 0.5% BSA (Fraction V) and 2 mM EDTA. After washing, equal numbers of cells per mouse were blocked with Purified Rat Anti-Mouse CD16/CD32 (BD Biosciences) for 30 min on ice, then stained with APC-conjugated EMCN antibody (ebioscience 50-5851-80), PE-conjugated CD31 (ebioscience 12-0311-81). FITC-conjugated CD45 (Tonbo 35-0451), APC/Cy7-conjugated Ter119 (Biolegend 116223) and PerCP-Cy5.5-conjugated CD146 (BD Biosciences 562231) for 45 min on ice. After washing, cells were resuspended in PBS (pH 7.2) with 2 mM EDTA and 1 μg/mL 4-6,Diamidino-2-Phenylindole (DAPI) (live/dead exclusion) for analysis on an LSRII flow cytometer system (BD Biosciences) cytometer and analyzed using FlowJo software (TreeStar). Cell sorting was performed with a FACS Aria II SORP cell sorter (Becton Dickinson) at Weill Cornell Medical College, with exclusion of DAPI^+ cells and doublets. […]

Substance: FGF2: FGF2, positive control inducer of tube formation [reference compound]
- ability to induce tube formation after shRNA-mediated knockdown of YAP [1]: not

Substance: PTH: parathyroid hormone PTH (1-34), daily subcutaneous injections, comparator in OVX model (SVSEIQLMHNLGKHLNSMERVEWLRKKLQDVHNF; Parathyroid hormone; UniProt P01270 32-65, looked up, fragment) [reference compound]
- endosteal CD31hiEMCNhi endothelium after OVX [2]: reversed the attenuation
- endosteal bone formation [2]: rescued

Substance: SLIT2: recombinant SLIT2 protein, SLIT family ligand
- levels of skeletal CD31hiEMCNhi endothelium in vivo [3]: increased formation
